These results are taken from patent publication US10472395B2, “Cyclic peptide analogs and conjugates thereof” (Sirenas LLC, priority 2015, dated 2019).

Each structure is given as a SMILES string. Where two headings read alike, the source gives them in different places. Numbered stars: 1 amine (or outer) side, 2 acyl side, 3 side chain; on linkers, the order of the positions; unused ones are H or OH. Bridge positions count the residues as written; N and C are the ends. Square brackets hold non-standard residues; d marks the D form. Peptide text beside a SMILES is read from it. X12 = CC/C=C(\C)[C@@H](O[*:2])[C@@H](C)[C@@H](O)C/C=C(\C)C(=O)[*:1]; Hmp(2R,3S) = CC[C@H](C)[C@@H](O)C(=O)O; dNMeL = CN[C@H](CC(C)C)C(=O)O; NMeA = CN[C@@H](C)C(=O)O; Sar = CNCC(=O)O Bounds are passed on as bounds.

The test system of one data set is HeLa S3 cells. To be noted: K. Suenaga et al., Bioorg. Med. Chem. Lett. 2008, 18, 3902-3905; cited from earlier work.
The test system of a further data set is HCC1954 cells. Nature of the data set: Inhibitory response of test compounds against HCC1954 cells (method analogous to BT-474). In kind it is cell-based. Summed up: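 HCC1954 cells treated as for BT-474: seeded, after 24 h exposed to a 10-point dilution series (top 10 μM) for 72 h at 37 °C, 5% CO2. Viability by CellTiter-Glo luminescence; IC50 from four-parameter logistic fit of growth inhibition versus untreated wells.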

The subject of data set [1] is BT-474 human mammary gland ductal carcinoma cells. Nature of the data set: Inhibitory response of test compounds against BT-474 cells (Cell Titer-Glo, 72 h). The format is cell-based. Summed up: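 Cells plated 24 h at 37 °C, then exposed to a 10-point dilution series (top 10 μM) for 72 h. Viability read as CellTiter-Glo luminescence; % growth inhibition taken against untreated wells and IC50 obtained from a four-parameter logistic fit.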
Background: In ATP-based viability assays light output follows the ATP content of the culture.

Data set [2] concerns several cancer cell lines. The note with it: Y. Nakao et al., J. Nat. Prod. 2004, 67, 1332-1340; cited from earlier work.

Consider `CC/C=C(\C)[C@H]1OC(=O)[C@H](C)N(C)C(=O)[C@H](C(C)C)NC(=O)CN(C)C(=O)[C@@H](CC(C)C)N(C)C(=O)[C@H](C(C)C)NC(=O)[C@@H]([C@@H](C)CC)OC(=O)/C(C)=C/C[C@H](O)[C@@H]1C` [Aurilide, aurilide] ([Hmp(2R,3S)]V[dNMeL][Sar]V[NMeA]; linker N-C via X12), for which the “cytotoxicity against HeLa S3 cells” value in the data set with HeLa S3 cells is recorded as “potent cytotoxicity”.

With `C/C=C(\C)[C@H]1OC(=O)[C@@H](C)NC(=O)[C@H]([C@H](C)CC)NC(=O)CN(C)C(=O)[C@@H](Cc2ccccc2)N(C)C(=O)[C@H](C)NC(=O)[C@@H](CC(C)C)OC(=O)/C(C)=C/C[C@H](OC(=O)NCCCOCCOCCOCCCNC(=O)c2ccc(C(C)=O)cc2)[C@@H]1C` [Compound 116], the half-maximal inhibitory concentration (IC50) in the data set on HCC1954 cells (Homo sapiens) is 20 to 200 nM; in data set [1] (Homo sapiens) it was less than 20 nM.

Consider `C/C=C(\C)[C@H]1OC(=O)[C@@H](C)NC(=O)[C@H]([C@H](C)CC)NC(=O)CN(C)C(=O)[C@@H](Cc2ccccc2)N(C)C(=O)[C@H](C)NC(=O)[C@@H](CC(C)C)OC(=O)/C(C)=C/C[C@H](OC(=O)N(C)CCN(C)C(=O)OCC[Si](C)(C)C)[C@@H]1C` [Compound 117], for which the IC50 (with HCC1954 cells (Homo sapiens); in data set [1] (Homo sapiens)) was 20 to 200 nM each time.

For `C/C=C(\C)[C@H]1OC(=O)[C@@H](C)NC(=O)[C@H]([C@H](C)CC)NC(=O)CN(C)C(=O)[C@@H](Cc2ccc(Cl)cc2)N(C)C(=O)[C@H](CCCCN)NC(=O)[C@@H](CC(C)C)OC(=O)/C(C)=C/CC[C@@H]1C` [Compound 118], the IC50 (in the data set with HCC1954 cells (Homo sapiens); in data set [1] (Homo sapiens)) was 200 to 10000 nM throughout.

With `C/C=C(\C)[C@H]1OC(=O)[C@@H](C)NC(=O)[C@H]([C@H](C)CC)NC(=O)CN(C)C(=O)[C@@H](Cc2ccc(Cl)cc2)N(C)C(=O)[C@H](CCCCNC(=O)OC(C)(C)C)NC(=O)[C@@H](CC(C)C)OC(=O)/C(C)=C/CC[C@@H]1C` [Compound 119], the IC50 (in the data set on HCC1954 cells (Homo sapiens); in data set [1] (Homo sapiens)) was less than 20 nM each time.

With `C/C=C(\C)[C@H]1OC(=O)[C@@H](C)NC(=O)[C@H](C(C)CC)NC(=O)CN(C)C(=O)[C@@H](Cc2ccccc2)N(C)C(=O)[C@H](C)NC(=O)[C@@H](CC(C)C)OC(=O)/C(C)=C/C[C@H](CC(=O)NCCOCCOCCOCCO)[C@@H]1C` (stereo partly drawn) [Compound 122], the IC50 is 20 to 200 nM with HCC1954 cells (Homo sapiens) and less than 20 nM in data set [1] (Homo sapiens).

For `C/C=C(\C)[C@H]1OC(=O)[C@@H](C)NC(=O)[C@H](C(C)CC)NC(=O)CN(C)C(=O)[C@@H](Cc2ccccc2)N(C)C(=O)[C@H](C)NC(=O)[C@@H](CC(C)C)OC(=O)/C(C)=C/C[C@H](OC(=O)NCCO)[C@@H]1C` (stereo partly drawn) [Compound 123], the IC50 (in the data set with HCC1954 cells (Homo sapiens); in data set [1] (Homo sapiens)) was less than 20 nM each time.

With `C/C=C(\C)[C@H]1OC(=O)[C@@H](C)NC(=O)[C@H](C(C)CC)NC(=O)CN(C)C(=O)[C@@H](Cc2c[nH]c3ccccc23)N(C)C(=O)[C@H](C)NC(=O)[C@@H](CC(C)C)OC(=O)/C(C)=C/C[C@H](O)[C@@H]1C` (stereo partly drawn) [Compound 125], the IC50 in the data set on HCC1954 cells (Homo sapiens) was 20 to 200 nM; in data set [1] (Homo sapiens), less than 20 nM.

Take `C/C=C(\C)[C@H]1OC(=O)[C@@H](C)NC(=O)[C@H](C(C)CC)NC(=O)CN(C)C(=O)[C@@H](Cc2ccccc2)N(C)C(=O)[C@H](C)NC(=O)[C@@H](CC(C)C)OC(=O)/C(C)=C/C[C@H](OC(=O)NCCCOCCOCCOCCCNC(=O)CCSSc2ccccn2)[C@@H]1C` (stereo partly drawn) [Compound L12]: the figures for the IC50 (in the data set on HCC1954 cells; in data set [1]) were more than 10000 nM and 200 to 10000 nM, respectively.

Take `C/C=C(\C)[C@H]1OC(=O)[C@@H](C)NC(=O)[C@H](C(C)CC)NC(=O)CN(C)C(=O)[C@@H](Cc2ccccc2)N(C)C(=O)[C@H](C)NC(=O)[C@@H](CC(C)C)OC(=O)/C(C)=C/C[C@H](O)[C@@H]1C` (stereo partly drawn) [Kulo-2, kulo-2, reference compound]: the IC50 with HCC1954 cells (Homo sapiens) was less than 20 nM; in data set [1] (Homo sapiens), less than 20 nM; in data set [1] (Homo sapiens, 72 h, Cell Titer-Glo), 1.76 nM. For the same compound, the “cytotoxicity against several cancer cell lines” value in data set [2] was “potent cytotoxicity”.

Usually IC50 stands for the midpoint of a concentration-inhibition curve.
